Laboratory results taken from PubChem BioAssay AID1259411 (Chemical Carcinogenesis Research Information System (CCRIS), 2018).
Active and inactive are the calls of the source. No rule for the calls is given here.

Test system: rodent carcinogenicity bioassays, tumor incidence
Test: CCRIS carcinogenicity studies
In short: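 Archive of carcinogenicity, mutagenicity, tumor promotion and tumor inhibition results drawn from journals, NCI reports and other sources, expert-reviewed; covers 1985-2011 and is no longer updated.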

SMILES: O=[N+]([O-])c1cc2c3ccccc3ccc2c2ccccc12
- carcinogen call (Species: MOUSE, Strain/Sex: B6C3F1/MALE, Route: INTRAPERITONEAL, Dose: 0, 400 NMOL IN 35 µL DMSO ON DAYS 1 (1/7 TOTAL DOSE), 8 (2/7 TOTAL DOSE), AND 15 (4/7 TOTAL DOSE) AFTER BIRTH (STUDY DUR, Tumor Site: Type of Lesion: LIVER: ADENOMA OR CARCINOMA, LUNG: TUMOR): active; positive
- carcinogen call (Species: MOUSE, Strain/Sex: BLU:HA/FEMALE, Route: INTRAPERITONEAL, Dose: 0, 38.5, 189 UG (TOTAL DOSE) GIVEN TO NEWBORN MICE IN 3 DOSES OF 1/7, 2/7 AND 4/7 OF THE TOTAL ON DAYS 1, 8 AND 15 RESPE, Dose: 0, 38.5, 189 UG (TOTAL DOSE) GIVEN TO NEWBORN MICE IN 3 DOSES OF 1/7, 2/7 AND 4/7 OF THE TOTAL ON DAYS 1, 8 AND 15 RESPE, Tumor Site: Type of Lesion: LUNG: TUMORS): active; positive
- carcinogen call (Species: MOUSE, Strain/Sex: BLU:HA/MALE, Route: INTRAPERITONEAL, Dose: 0, 38.5, 189 UG (TOTAL DOSE) GIVEN TO NEWBORN MICE IN 3 DOSES OF 1/7, 2/7 AND 4/7 OF THE TOTAL ON DAYS 1, 8 AND 15 RESPE, Dose: 0, 38.5, 189 UG (TOTAL DOSE) GIVEN TO NEWBORN MICE IN 3 DOSES OF 1/7, 2/7 AND 4/7 OF THE TOTAL ON DAYS 1, 8 AND 15 RESPE, Tumor Site: Type of Lesion: LUNG: TUMORS): active; positive
- carcinogen call (Species: MOUSE, Strain/Sex: ICR/FEMALE, Route: INTRAPERITONEAL, Dose: 0, 7.5, 15, 30 µL OF A 26.7 NMOL/UL DMSO SOLUTION ON 1,8, AND 15 D OF AGE RESPECTIVELY (TOTAL DOSE: 0; 1.4 UMOL) (STUDY, Dose: 0, 7.5, 15, 30 µL OF A 26.7 NMOL/UL DMSO SOLUTION ON 1,8, AND 15 D OF AGE RESPECTIVELY (TOTAL DOSE: 0; 1.4 UMOL) (STUDY, Tumor Site: Type of Lesion: LUNG: ADENOMA): active; positive
- carcinogen call (Species: MOUSE, Strain/Sex: ICR/FEMALE, Route: INTRAPERITONEAL, Dose: 0, 7.7 UG TOTAL DOSE (1.1 UG/5 µL, 2.2 UG/10 µL, 4.4 UG/20 µL DMSO ON DAYS 1, 8 AND 15) ADMINISTERED TO NEWBORN ANIMALS, Tumor Site: Type of Lesion: LUNG: ADENOMA, ADENOCARCINOMA): active; positive
- carcinogen call (Species: MOUSE, Strain/Sex: ICR/FEMALE, Route: INTRAPERITONEAL, Dose: 0, 100 NMOL (TOTAL DOSE) ADMINISTERED IN 3 SUBDOSES OF 1/7, 2/7, AND 4/7 ON DAYS 1, 8 AND 15 OF LIFE, RESPECTIVELY (STUD, Tumor Site: Type of Lesion: LUNG: TUMORS): active; positive
- carcinogen call (Species: MOUSE, Strain/Sex: ICR/MALE, Route: INTRAPERITONEAL, Dose: 0, 7.5, 15, 30 µL OF A 26.7 NMOL/UL DMSO SOLUTION ON 1,8, AND 15 D OF AGE RESPECTIVELY (TOTAL DOSE: 0; 1.4 UMOL) (STUDY, Dose: 0, 7.5, 15, 30 µL OF A 26.7 NMOL/UL DMSO SOLUTION ON 1,8, AND 15 D OF AGE RESPECTIVELY (TOTAL DOSE: 0; 1.4 UMOL) (STUDY, Tumor Site: Type of Lesion: LUNG: ADENOMA): active; positive
- carcinogen call (Species: MOUSE, Strain/Sex: ICR/MALE, Route: INTRAPERITONEAL, Dose: 0, 7.7 UG TOTAL DOSE (1.1 UG/5 µL, 2.2 UG/10 µL, 4.4 UG/20 µL DMSO ON DAYS 1, 8 AND 15) ADMINISTERED TO NEWBORN ANIMALS, Tumor Site: Type of Lesion: LUNG: ADENOMA, ADENOCARCINOMA): active; positive
- carcinogen call (Species: MOUSE, Strain/Sex: ICR/MALE, Route: INTRAPERITONEAL, Dose: 0, 100 NMOL (TOTAL DOSE) ADMINISTERED IN 3 SUBDOSES OF 1/7, 2/7, AND 4/7 ON DAYS 1, 8 AND 15 OF LIFE, RESPECTIVELY (STUD, Tumor Site: Type of Lesion: LUNG: TUMORS, LIVER: TUMORS): active; positive
- carcinogen call (Species: MOUSE, Strain/Sex: SWISS/FEMALE, Route: INTRAPERITONEAL, Dose: 0, 100, 700 NMOL (TOTAL DOSE) 1/7, 2/7 AND 4/7 ADMINISTERED ON DAYS 1, 8 AND 15 OF LIFE RESPECTIVELY (STUDY DURATION: 32, Dose: 0, 100, 700 NMOL (TOTAL DOSE) 1/7, 2/7 AND 4/7 ADMINISTERED ON DAYS 1, 8 AND 15 OF LIFE RESPECTIVELY (STUDY DURATION: 32, Tumor Site: Type of Lesion: LUNG: TUMOR): active; positive
- carcinogen call (Species: MOUSE, Strain/Sex: SWISS/FEMALE, Route: INTRAPERITONEAL, Dose: 0, 100 NMOL (TOTAL DOSE) ADMINISTERED 1/7, 2/7 AND 4/7 ON DAY 1, 8 AND 15 RESPECTIVELY (STUDY DURATION: 32 WK), Tumor Site: Type of Lesion: LUNG: TUMOR): active; positive
- carcinogen call (Species: MOUSE, Strain/Sex: SWISS/FEMALE, Route: INTRAPERITONEAL, Dose: 0, 100 NMOL ON DAY 1 OF LIFE (STUDY DURATION: 32 WK), Tumor Site: Type of Lesion: LUNG: TUMOR, LIVER: TUMOR): active; positive
- carcinogen call (Species: MOUSE, Strain/Sex: SWISS/MALE, Route: INTRAPERITONEAL, Dose: 0, 100, 700 NMOL (TOTAL DOSE) 1/7, 2/7 AND 4/7 ADMINISTERED ON DAYS 1, 8 AND 15 OF LIFE RESPECTIVELY (STUDY DURATION: 32, Dose: 0, 100, 700 NMOL (TOTAL DOSE) 1/7, 2/7 AND 4/7 ADMINISTERED ON DAYS 1, 8 AND 15 OF LIFE RESPECTIVELY (STUDY DURATION: 32, Tumor Site: Type of Lesion: LUNG: TUMOR, LIVER: TUMOR): active; positive
- carcinogen call (Species: MOUSE, Strain/Sex: SWISS/MALE, Route: INTRAPERITONEAL, Dose: 0, 100 NMOL (TOTAL DOSE) ADMINISTERED 1/7, 2/7 AND 4/7 ON DAY 1, 8 AND 15 RESPECTIVELY (STUDY DURATION: 32 WK), Tumor Site: Type of Lesion: LIVER: TUMOR, LUNG: TUMOR): active; positive
- carcinogen call (Species: MOUSE, Strain/Sex: SWISS/MALE, Route: INTRAPERITONEAL, Dose: 0, 100 NMOL ON DAY 1 OF LIFE (STUDY DURATION: 32 WK), Tumor Site: Type of Lesion: LUNG: TUMOR, LIVER: TUMOR): active; positive
- carcinogen call (Species: RAT, Strain/Sex: CD-1/FEMALE, Route: INTRAPERITONEAL, Dose: 0, 15, 30, 60, 150, 300 µL OF A 26.7 NMOL/UL SOLUTION ON 1, 8, 15, 22, AND 29 D OF AGE RESPECTIVELY (TOTAL DOSE: 0, 14.8, Dose: 0, 15, 30, 60, 150, 300 µL OF A 26.7 NMOL/UL SOLUTION ON 1, 8, 15, 22, AND 29 D OF AGE RESPECTIVELY (TOTAL DOSE: 0, 14.8, Tumor Site: Type of Lesion: COLON: ADENOCARCINOMA, ADENOMA/DYSPLASIA): active; positive
- carcinogen call (Species: RAT, Strain/Sex: CD-1/MALE, Route: INTRAPERITONEAL, Dose: 0, 15, 30, 60, 150, 300 µL OF A 26.7 NMOL/UL DMSO SOLUTION ON 1, 8, 15, 22 AND 29 D OF AGE RESPECTIVELY (TOTAL DOSE: 0;, Dose: 0, 15, 30, 60, 150, 300 µL OF A 26.7 NMOL/UL DMSO SOLUTION ON 1, 8, 15, 22 AND 29 D OF AGE RESPECTIVELY (TOTAL DOSE: 0;, Tumor Site: Type of Lesion: COLON: ADENOCARCINOMA, ADENOMA): active; positive
- carcinogen call (Species: RAT, Strain/Sex: STRAIN-CD/ FEMALE, Route: INJECTION, Dose: 0, 2.04 UMOL IN 0.1 ML DMSO INJECTED BENEATH EACH OF THREE LEFT THORACIC NIPPLES THEN ON THE NEXT DAY BENEATH EACH THE T, Tumor Site: Type of Lesion: MAMMARY GLAND: TUMOR): active; positive
- carcinogen call (Species: RAT, Strain/Sex: STRAIN-CD/FEMALE, Route: INJECTION, Dose: 0, 2.04 UMOL IN 100 µL DMSO INJECTED INTO 3 THORACIC MAMMARY GLANDS ON DAY 1 AND INTO 3 INQUINAL MAMMARY GLANDS ON DAY 2, Tumor Site: Type of Lesion: MAMMARY GLAND: FIBROADENOMA, ADENOCARCINOMA, SPINDLE CELL SARCOMA): active; positive

SMILES: CCCCN(N=O)C(CCC)OC(C)=O (stereo not drawn)
- carcinogen call (Species: RAT, Strain/Sex: F344/FEMALE, Route: SUBCUTANEOUS, Dose: 38 UMOL/KG IN OLIVE OIL 1/WK FOR 10 WK, Tumor Site: Type of Lesion: INJECTION SITE: MALIGNANT FIBROUS HISTIOCYTOMA): active; positive
- carcinogen call (Species: RAT, Strain/Sex: F344/MALE, Route: SUBCUTANEOUS, Dose: 38 UMOL/KG IN OLIVE OIL 1/WK FOR 10 WK, Tumor Site: Type of Lesion: INJECTION SITE: MALIGNANT FIBROUS HISTIOCYTOMA, LUNG: ADENOMA): active; positive

SMILES: O=[N+]([O-])c1c2ccccc2c2ccc3cccc4ccc1c2c43
- carcinogen call (Species: MOUSE, Strain/Sex: ICR/FEMALE, Route: INTRAPERITONEAL, Dose: 0, 14 UG TOTAL DOSE (2 UG/5 µL, 4 UG/10 µL, 8 UG/20 µL DMSO ON DAYS 1,8 AND 15), 70 UG TOTAL DOSE (10 UG/5 µL, 20 UG/10, Dose: 0, 14 UG TOTAL DOSE (2 UG/5 µL, 4 UG/10 µL, 8 UG/20 µL DMSO ON DAYS 1,8 AND 15), 70 UG TOTAL DOSE (10 UG/5 µL, 20 UG/10): inactive; negative
- carcinogen call (Species: MOUSE, Strain/Sex: ICR/MALE, Route: INTRAPERITONEAL, Dose: 0, 14 UG TOTAL DOSE (2 UG/5 µL, 4 UG/10 µL, 8 UG/20 µL DMSO ON DAYS 1,8 AND 15), 70 UG TOTAL DOSE (10 UG/5 µL, 20 UG/10, Dose: 0, 14 UG TOTAL DOSE (2 UG/5 µL, 4 UG/10 µL, 8 UG/20 µL DMSO ON DAYS 1,8 AND 15), 70 UG TOTAL DOSE (10 UG/5 µL, 20 UG/10): inactive; negative
